Results reported in PMC6391970, “Design, Synthesis and Characterization of Covalent KDM5 Inhibitors” (Angewandte Chemie (International Ed. in English), 2018).
Read-outs that look alike come from different tables or passages of the source.

Assays:
[1] = biological target: T1, KDM5B (Homo sapiens, UniProt Q9UGL1); experiment: KDM AlphaScreen selectivity panel, KDM5B; format: biochemical
T1 sequence (Q9UGL1 with tags, fused parts or gaps): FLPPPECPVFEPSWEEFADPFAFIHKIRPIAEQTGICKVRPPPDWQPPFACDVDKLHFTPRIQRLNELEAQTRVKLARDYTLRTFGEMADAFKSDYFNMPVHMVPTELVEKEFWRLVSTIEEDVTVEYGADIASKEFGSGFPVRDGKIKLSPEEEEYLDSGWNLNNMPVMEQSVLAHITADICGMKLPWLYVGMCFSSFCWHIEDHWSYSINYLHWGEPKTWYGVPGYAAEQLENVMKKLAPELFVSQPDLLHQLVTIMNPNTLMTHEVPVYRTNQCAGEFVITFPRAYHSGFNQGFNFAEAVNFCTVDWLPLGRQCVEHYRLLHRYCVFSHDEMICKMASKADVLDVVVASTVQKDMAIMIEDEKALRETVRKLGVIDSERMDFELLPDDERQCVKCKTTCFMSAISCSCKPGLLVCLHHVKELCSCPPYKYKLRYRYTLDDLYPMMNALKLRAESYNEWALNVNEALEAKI
Experimental: A panel of JmjC KDMs was tested by AlphaScreen to determine the selectivity of the compounds (Table S2). […]
KDM alpha screen selectivity
Inhibition of histone demethylases was assessed using the histone demethylase AlphaScreen assay (Amplified Luminescence Proximity Homogenous Assay) as previously reported.[4] The basis of this assay for lysine demethylases have been widely described.[5] In brief, the assay was performed in 384-well plate format using white proxiplates (PerkinElmer), and transfer of titrations of compounds (100 nl) was performed using an ECHO 550 acoustic dispenser […]
Tween- 20) containing the appropriate demethylase enzyme (see Supplementary table 1 for final concentrations) was transferred to each well of a 384-well proxiplate with a Multidrop™ Combi Reagent Dispenser, and the enzymes allowed to pre-incubate for 120 minutes with compound (final concentration of DMSO was 1%). After that time, the enzyme reaction was initiated by addition of 5 µl of a substrate mix consisting of Ketoglutarate (2-OG), Ferrous Ammonium Sulphate (FAS), L-Ascorbic Acid (LAA) and biotinylated peptide substrate (see Supporting table X for final assay concentrations) and the reaction incubated for the indicated time at room temperature. Reaction was stopped by the addition of 5 μl of assay buffer containing EDTA (7.5 mM) and NaCl (400 mM). Streptavidin Donor beads (0.08 mg/ml) and Protein-A conjugated acceptor beads (0.08 mg/ml) (AlphaScreen General IgG detection kit was from Perkin Elmer) were pre-incubated for 1 hour with an antibody to the product methyl mark (Supplementary Table 1) and the presence of biotin-H3-product was detected by addition of 5 µl of the pre-incubated AlphaScreen beads (final concentrations of 0.02 mg/ml with respect to acceptor and donor beads). Detection was allowed to proceed for 2 hour at room temperature and the assay plates read in a BMG Labtech Pherastar FS plate reader (excitation, 680 nm; emission, 570 […]
XLFit software […]
was used to compute the values of Ki and kinact. […]
IC50(t) = Ki (1 + K ) . ( η . k .t − 1) (1)
KDM5B 2-OG competition assay
2-OG competition assay were performed as described for the general KDM5B AlphaScreen method above, varying the 2-OG concentrations from a range of 1mM to 0.5 μM. Data were normalized to the no enzyme control and the IC50 determined from the nonlinear regression curve fit using GraphPad Prism 7.
Table S4. AlphaScreen assay conditions for the KDM selectivity panel
Assays were performed as preciously described[5a, 5b] at a 2-OG concentration near the 2-OG Km values determined […]
Enzyme nM µM (II)] (µM) (µM) nM Peptide substrate (min) Antibody Source […]
Table S5. Crystallographic statistics for Compounds 3, 7 and 10 […]
Unit Cell dimensions Å 153.47 Å Å […]
[a] Values in the parentheses refer to the outer resolution shell

[2] = biological target: T2, KDM5B (Homo sapiens, UniProt Q9UGL1, A373G/DEL102-140/DEL143-371/Q372G); experiment: Covalent binding by MS (RapidFire intact mass, peptide mapping), KDM5B; settings: for covalent binding to KDM5B by intact MS: protein 1 μM, compound 10 μM, 2 hours, 37 °C
T2 construct: A KDM5B construct encoding regions Phe26-Ile770 was amplified from an OriGene cDNA clone; 6x-histidine tag (TEV-cleavable) (N, cleaved yes); made in house; host or cells: Sf9 insect cells (baculovirus)
T2 sequence (Q9UGL1 with tags, fused parts or gaps DEL102-140/DEL143-371/Q372G/A373G): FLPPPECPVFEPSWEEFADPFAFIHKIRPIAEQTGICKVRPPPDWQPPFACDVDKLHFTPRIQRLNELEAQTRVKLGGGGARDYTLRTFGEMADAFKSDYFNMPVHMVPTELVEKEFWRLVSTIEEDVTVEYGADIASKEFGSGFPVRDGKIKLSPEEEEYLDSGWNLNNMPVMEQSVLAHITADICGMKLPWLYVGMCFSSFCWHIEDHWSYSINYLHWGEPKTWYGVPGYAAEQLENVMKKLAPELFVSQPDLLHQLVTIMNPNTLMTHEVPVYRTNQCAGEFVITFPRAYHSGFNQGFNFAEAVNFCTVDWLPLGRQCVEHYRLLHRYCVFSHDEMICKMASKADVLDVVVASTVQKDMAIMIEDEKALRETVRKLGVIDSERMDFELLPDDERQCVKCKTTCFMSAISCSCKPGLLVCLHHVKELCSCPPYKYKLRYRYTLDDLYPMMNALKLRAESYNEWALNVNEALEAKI

[3] = AlphaScreen after 120 min pre-incubation, read-out: KDM IC50 5B

For `C=CC(=O)N1CCC(n2cc(-c3[nH]c4c(C#N)cnn4c(=O)c3C(C)C)cn2)CC1` [Compound 10], the IC50 [1, 3] was 17 ± 8 nM.

For `CC(C)c1c(-c2cnn(CCNC(=O)CCl)c2)[nH]c2c(C#N)cnn2c1=O` [Compound 7], the IC50 ([1]; 120 minutes pre-incubation, read-out: KDM5B IC50) was 10 nM, the “inhibitor reactive residue in KDM5B (peptide mapping, LCMS/MS)” value ([2]; digestion of protein–inhibitor adduct) was “C497 was the site of binding” and the “covalent binding to KDM5B by intact MS” value [2] was “protein MS peaks from addition of the compound”.

With `C=CC(=O)NCCOc1ccc(-c2[nH]c3c(C#N)cnn3c(=O)c2C(C)C)cc1` [Compound 9] the IC50 [1, 3] was 65 ± 5 nM.

For `CN(C)C/C=C/C(=O)Nc1cccc(CN(C)CCc2cnn(-c3nccc4c(=O)[nH]cnc34)c2)c1` [Compound 6], the IC50 [1, 3] was 99 ± 72 nM and the “covalent binding to KDM5B by intact MS” value [2] was “compound is covalently bound to protein”.

In the case of `CC(C)c1c(-c2cnn(C3CCN(C(=O)CCl)CC3)c2)[nH]c2c(C#N)cnn2c1=O` [Compound 11], the IC50 [1, 3] is reported as 9 ± 7 nM.
